{"source": "paper PMC6287599", "about": "“2,6-Bis(2-Benzimidazolyl)Pyridine (BBP) Is a Potent and Selective Inhibitor of Small Conductance Calcium-Activated Potassium (SK) Channels” (Frontiers in Pharmacology, 2018)", "format_in_all_cases": "cell-based", "conditions_in_all_cases": "BBP 10 μM, TEVC, n = 5", "key": {"Kir3.1+Kir3.4": {"target": "T1, Kir3.1+Kir3.4 (Homo sapiens, UniProt P48544+P48549)", "T1 sequence (P48549 1-501)": "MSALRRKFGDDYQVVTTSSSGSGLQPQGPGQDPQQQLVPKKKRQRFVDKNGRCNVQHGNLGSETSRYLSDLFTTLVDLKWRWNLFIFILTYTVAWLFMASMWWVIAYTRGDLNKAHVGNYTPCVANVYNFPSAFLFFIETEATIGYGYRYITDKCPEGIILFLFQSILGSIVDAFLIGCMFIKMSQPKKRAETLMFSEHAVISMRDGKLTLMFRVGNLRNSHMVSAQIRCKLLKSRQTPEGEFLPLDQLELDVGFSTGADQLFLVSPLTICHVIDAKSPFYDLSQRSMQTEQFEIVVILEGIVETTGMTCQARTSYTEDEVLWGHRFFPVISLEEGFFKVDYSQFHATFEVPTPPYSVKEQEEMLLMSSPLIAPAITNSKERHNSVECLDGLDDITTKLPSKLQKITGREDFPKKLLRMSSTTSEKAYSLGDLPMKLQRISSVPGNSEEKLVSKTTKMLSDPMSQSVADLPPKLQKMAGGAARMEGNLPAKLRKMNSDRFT", "T1 sequence (P48544 1-419)": "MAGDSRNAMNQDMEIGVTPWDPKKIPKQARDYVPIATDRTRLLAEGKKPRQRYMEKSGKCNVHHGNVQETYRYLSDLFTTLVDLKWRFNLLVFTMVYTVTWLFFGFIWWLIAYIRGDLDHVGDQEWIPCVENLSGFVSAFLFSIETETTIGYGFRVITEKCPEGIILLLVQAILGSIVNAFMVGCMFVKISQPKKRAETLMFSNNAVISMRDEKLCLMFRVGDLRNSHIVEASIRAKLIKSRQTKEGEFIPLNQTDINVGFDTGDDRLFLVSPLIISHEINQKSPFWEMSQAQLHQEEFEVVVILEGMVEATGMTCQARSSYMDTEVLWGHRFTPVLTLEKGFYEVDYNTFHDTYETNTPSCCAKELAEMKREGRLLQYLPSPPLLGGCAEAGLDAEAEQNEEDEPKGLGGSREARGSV", "experiment": "Two-electrode voltage clamp in Xenopus laevis oocytes, Kir3.1+Kir3.4", "method": "(§1) cRNA was prepared from linearized plasmids using the mMESSAGE mMACHINE T7 kit (Ambion, USA) and quantified by UV spectroscopy (NanoDrop, Thermo Scientific, Wilmington, USA). Xenopus laevis oocytes were acquired from EcoCyte Bioscience (Castrop-Rauxel, Germany). Oocytes were injected with 50 nL cRNA and currents were recorded after 2 days of incubation at 19°C. Currents were recorded at a sampling rate of 10 kHz using a TEVC amplifier (Dagan CA-1B; IL, USA), and borosilicate glass recording electrodes (Module Ohm, Herlev, Denmark), made with a DMZ Universal Puller (Zeitz Instruments, Martinsried, Germany) with a resistance of 0.5–1 MΩ when filled with 2 M KCl. Oocytes were superfused with Kulori (pH 7.4) solution containing NaCl 90 mM, KCl 4 mM, MgCl2 1 mM, CaCl2 1 mM, 4-(2-hydroxyethyl)-1-piperazineethanesulfonic acid 5 mM, and currents were elicited with the voltage protocols previously indicated (Skarsfeldt et al., [2016]), from a holding potential of −80 mV. […]\n(§2) To assess the effect of BBP on other calcium-activated potassium channels (hBK, hSK3 WT, rSK3 H491N, and hIK), each individual current was first normalized to its cell size using membrane's capacitance (pA/pF) before statistical analysis. […] Statistical significance between saline and the effect of both BBP and the corresponding reference compound was determined for each channel using one-way ANOVA analysis. […]"}, "Kv7.1/KCNE1": {"target": "Kv7.1/KCNE1 (Homo sapiens, UniProt P51787)", "experiment": "Two-electrode voltage clamp in Xenopus laevis oocytes, Kv7.1/KCNE1", "method": "as §1, §2"}, "Kv1.5": {"target": "Kv1.5 (Homo sapiens, UniProt P22460)", "sequence (P22460 whole entry)": "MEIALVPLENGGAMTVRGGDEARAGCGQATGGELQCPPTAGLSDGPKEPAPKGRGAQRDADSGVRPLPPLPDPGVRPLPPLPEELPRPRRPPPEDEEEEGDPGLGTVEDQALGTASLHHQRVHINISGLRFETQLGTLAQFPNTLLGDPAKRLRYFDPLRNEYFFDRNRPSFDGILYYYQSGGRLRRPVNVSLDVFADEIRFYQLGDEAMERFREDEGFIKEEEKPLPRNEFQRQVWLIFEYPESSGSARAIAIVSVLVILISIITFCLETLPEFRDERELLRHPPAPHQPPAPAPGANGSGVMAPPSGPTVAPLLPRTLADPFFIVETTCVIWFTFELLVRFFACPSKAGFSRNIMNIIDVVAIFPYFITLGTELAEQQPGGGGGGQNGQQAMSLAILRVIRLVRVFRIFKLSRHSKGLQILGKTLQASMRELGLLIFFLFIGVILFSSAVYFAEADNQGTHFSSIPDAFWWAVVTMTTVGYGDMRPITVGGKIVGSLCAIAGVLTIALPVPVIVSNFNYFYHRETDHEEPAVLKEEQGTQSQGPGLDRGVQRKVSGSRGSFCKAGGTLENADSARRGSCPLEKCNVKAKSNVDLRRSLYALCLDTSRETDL", "experiment": "Two-electrode voltage clamp in Xenopus laevis oocytes, Kv1.5", "method": "as §1, §2"}}, "note": "Entries after “also recorded” stand apart in the source; their conditions may differ."}
{"molecule": "c1cc(-c2nc3ccccc3[nH]2)nc(-c2nc3ccccc3[nH]2)c1", "note": "[BBP, 2,6-Bis(2-benzimidazolyl)pyridine]", "values": [{"measurement": "Effect on Kir3.1+Kir3.4 current", "setting": "Kir3.1+Kir3.4", "result": "did not have any effect; also recorded: did not significantly affect"}, {"measurement": "Effect on Kv7.1/KCNE1 current", "setting": "Kv7.1/KCNE1", "result": "did not have any effect; also recorded: did not significantly affect"}, {"measurement": "Effect on Kv1.5 current", "setting": "Kv1.5", "result": "did not have any effect; also recorded: did not significantly affect"}]}
